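All cell lines were grown in 96-well plates and treated with compound for 48 hours. GI50 marks 50% less growth. TGI: concentration producing complete growth inhibition.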
Key:
Test in all cases: inhibition of tumour cell growth, NCI panel, 48 h
786-0 renal = system: 786-0 renal
A498 renal = system: A498 renal
A549 NSCLC = system: A549 NSCLC
ACHN renal = system: ACHN renal
BT-549 breast = system: BT-549 breast
CAKI-1 renal = system: CAKI-1 renal
CCRF-CEM leukemia = system: CCRF-CEM leukemia
COLO 205 colon = system: COLO 205 colon
DU-145 prostate = system: DU-145 prostate
EKVX NSCLC = system: EKVX NSCLC
HCC-2998 colon = system: HCC-2998 colon
HCT-116 colon = system: HCT-116 colon
HCT-15 colon = system: HCT-15 colon
HL-60(TB) leukemia = system: HL-60(TB) leukemia
HOP-62 NSCLC = system: HOP-62 NSCLC
HOP-92 NSCLC = system: HOP-92 NSCLC
HS 578T breast = system: HS 578T breast
HT29 colon = system: HT29 colon
IGROV1 ovarian = system: IGROV1 ovarian
K-562 leukemia = system: K-562 leukemia
KM12 colon = system: KM12 colon
LOX IMVI melanoma = system: LOX IMVI melanoma
M14 melanoma = system: M14 melanoma
MALME-3M melanoma = system: MALME-3M melanoma
MCF7 breast = system: MCF7 breast
MDA-MB-231 breast = system: MDA-MB-231 breast
MDA-MB-435 = system: MDA-MB-435
MDA-MB-468 breast = system: MDA-MB-468 breast
MOLT-4 leukemia = system: MOLT-4 leukemia
NCI-H226 lung = system: NCI-H226 lung
NCI-H23 lung = system: NCI-H23 lung
NCI-H460 lung = system: NCI-H460 lung
NCI-H522 lung = system: NCI-H522 lung
NCI/ADR-RES ovarian = system: NCI/ADR-RES ovarian
OVCAR-3 ovarian = system: OVCAR-3 ovarian
OVCAR-4 ovarian = system: OVCAR-4 ovarian
OVCAR-5 ovarian = system: OVCAR-5 ovarian
OVCAR-8 ovarian = system: OVCAR-8 ovarian
PC-3 prostate = system: PC-3 prostate
RPMI-8226 leukemia = system: RPMI-8226 leukemia
SF-268 CNS = system: SF-268 CNS
SF-295 CNS = system: SF-295 CNS
SF-539 CNS = system: SF-539 CNS
SK-MEL-2 melanoma = system: SK-MEL-2 melanoma
SK-MEL-28 melanoma = system: SK-MEL-28 melanoma
SK-MEL-5 melanoma = system: SK-MEL-5 melanoma
SK-OV-3 ovarian = system: SK-OV-3 ovarian
SN12C renal = system: SN12C renal
SNB-19 CNS = system: SNB-19 CNS
SNB-75 CNS = system: SNB-75 CNS
SR leukemia = system: SR leukemia
SW-620 colon = system: SW-620 colon
T-47D breast = system: T-47D breast
TK-10 renal = system: TK-10 renal
U251 CNS = system: U251 CNS
UACC-257 melanoma = system: UACC-257 melanoma
UACC-62 melanoma = system: UACC-62 melanoma
UO-31 renal = system: UO-31 renal

`COC(=O)CCn1c(-c2ccc(-n3cc(-c4ccc(O[C@H]5O[C@@H]6OC7(C)CC[C@H]8[C@H](C)CC[C@@H]([C@H]5C)[C@@]68OO7)cc4)nn3)cc2)nc2ccccc21` was tested, and the GI50 (786-0 renal) was 330 nM, the TGI (786-0 renal) was > 9250 nM and the GI50 (A498 renal) was 5400 nM. The TGI (A498 renal) was > 9250 nM, the GI50 (A549 NSCLC) was 277 nM and the TGI (A549 NSCLC) was > 9250 nM. It also gave a GI50 (ACHN renal) of 262 nM, a TGI (ACHN renal) of 1360 nM and a GI50 (BT-549 breast) of 127 nM. The TGI (BT-549 breast) was 693 nM, the GI50 (CAKI-1 renal) was 333 nM and the TGI (CAKI-1 renal) was > 9250 nM. For the same molecule, the GI50 (CCRF-CEM leukemia) was 51.7 nM, the TGI (CCRF-CEM leukemia) was > 9250 nM and the GI50 (COLO 205 colon) was 68.5 nM. The TGI (COLO 205 colon) was > 9250 nM, the GI50 (DU-145 prostate) was 485 nM and the TGI (DU-145 prostate) was > 9250 nM. The GI50 (EKVX NSCLC) was 150 nM, the TGI (EKVX NSCLC) was > 9250 nM and the GI50 (HCC-2998 colon) was 319 nM. The TGI (HCC-2998 colon) was > 9250 nM, the GI50 (HCT-116 colon) was 34.3 nM and the TGI (HCT-116 colon) was > 9250 nM. For the same molecule, the GI50 (HCT-15 colon) was 37.6 nM, the TGI (HCT-15 colon) was > 9250 nM and the GI50 (HL-60(TB) leukemia) was 98.4 nM. The TGI (HL-60(TB) leukemia) was 572 nM, the GI50 (HOP-62 NSCLC) was 558 nM and the TGI (HOP-62 NSCLC) was > 9250 nM. For the same molecule, the GI50 (HOP-92 NSCLC) was 128 nM, the TGI (HOP-92 NSCLC) was 765 nM and the GI50 (HS 578T breast) was 205 nM. For the same molecule, the TGI (HS 578T breast) was 5570 nM, the GI50 (HT29 colon) was 75.3 nM and the TGI (HT29 colon) was > 9250 nM. The GI50 (IGROV1 ovarian) was 257 nM, the TGI (IGROV1 ovarian) was > 9250 nM and the GI50 (K-562 leukemia) was 38.8 nM. The TGI (K-562 leukemia) was > 9250 nM, the GI50 (KM12 colon) was 52.5 nM and the TGI (KM12 colon) was > 9250 nM. It also gave a GI50 (LOX IMVI melanoma) of 37.1 nM, a TGI (LOX IMVI melanoma) of 158 nM and a GI50 (M14 melanoma) of 360 nM. The TGI (M14 melanoma) was > 9250 nM, the GI50 (MALME-3M melanoma) was 175 nM and the TGI (MALME-3M melanoma) was 5420 nM. The GI50 (MCF7 breast) was 40.9 nM, the TGI (MCF7 breast) was > 9250 nM and the GI50 (MDA-MB-231 breast) was 208 nM. For the same molecule, the TGI (MDA-MB-231 breast) was 2420 nM, the GI50 (MDA-MB-435) was 78 nM and the TGI (MDA-MB-435) was > 9250 nM. It also gave a GI50 (MDA-MB-468 breast) of 177 nM, a TGI (MDA-MB-468 breast) of 588 nM and a GI50 (MOLT-4 leukemia) of 37.7 nM. The TGI (MOLT-4 leukemia) was 1620 nM, the GI50 (NCI-H226 lung) was 163 nM and the TGI (NCI-H226 lung) was 2300 nM. The GI50 (NCI-H23 lung) was 65.5 nM, the TGI (NCI-H23 lung) was 6490 nM and the GI50 (NCI-H460 lung) was 274 nM. For the same molecule, the TGI (NCI-H460 lung) was > 9250 nM, the GI50 (NCI-H522 lung) was 97.6 nM and the TGI (NCI-H522 lung) was 1290 nM. The GI50 (NCI/ADR-RES ovarian) was 307 nM, the TGI (NCI/ADR-RES ovarian) was > 9250 nM and the GI50 (OVCAR-3 ovarian) was 100 nM. The TGI (OVCAR-3 ovarian) was > 9250 nM, the GI50 (OVCAR-4 ovarian) was 155 nM and the TGI (OVCAR-4 ovarian) was > 9250 nM. The GI50 (OVCAR-5 ovarian) was 134 nM, the TGI (OVCAR-5 ovarian) was > 9250 nM and the GI50 (OVCAR-8 ovarian) was 128 nM. For the same molecule, the TGI (OVCAR-8 ovarian) was > 9250 nM, the GI50 (PC-3 prostate) was 40 nM and the TGI (PC-3 prostate) was > 9250 nM. It also gave a GI50 (RPMI-8226 leukemia) of 42.7 nM, a TGI (RPMI-8226 leukemia) of 5120 nM and a GI50 (SF-268 CNS) of 242 nM. The TGI (SF-268 CNS) was > 9250 nM, the GI50 (SF-295 CNS) was 223 nM and the TGI (SF-295 CNS) was > 9250 nM. For the same molecule, the GI50 (SF-539 CNS) was 197 nM, the TGI (SF-539 CNS) was > 9250 nM and the GI50 (SK-MEL-2 melanoma) was 238 nM. For the same molecule, the TGI (SK-MEL-2 melanoma) was 812 nM, the GI50 (SK-MEL-28 melanoma) was 148 nM and the TGI (SK-MEL-28 melanoma) was > 9250 nM. The GI50 (SK-MEL-5 melanoma) was 216 nM, the TGI (SK-MEL-5 melanoma) was 1130 nM and the GI50 (SK-OV-3 ovarian) was 640 nM. The TGI (SK-OV-3 ovarian) was > 9250 nM, the GI50 (SN12C renal) was 189 nM and the TGI (SN12C renal) was > 9250 nM. For the same molecule, the GI50 (SNB-19 CNS) was 274 nM, the TGI (SNB-19 CNS) was > 9250 nM and the GI50 (SNB-75 CNS) was 257 nM. The TGI (SNB-75 CNS) was > 9250 nM, the GI50 (SR leukemia) was 40.2 nM and the TGI (SR leukemia) was 1140 nM. The GI50 (SW-620 colon) was 43.8 nM, the TGI (SW-620 colon) was > 9250 nM and the GI50 (T-47D breast) was 37.4 nM. The TGI (T-47D breast) was > 9250 nM, the GI50 (TK-10 renal) was 386 nM and the TGI (TK-10 renal) was > 9250 nM. The GI50 (U251 CNS) was 61 nM, the TGI (U251 CNS) was > 9250 nM and the GI50 (UACC-257 melanoma) was 276 nM. For the same molecule, the TGI (UACC-257 melanoma) was > 9250 nM, the GI50 (UACC-62 melanoma) was 135 nM and the TGI (UACC-62 melanoma) was 1970 nM. The GI50 (UO-31 renal) was 194 nM and the TGI (UO-31 renal) was 1050 nM.

From PubChem BioAssay (NCI)
